According to patent US8507269B2, “Calcium channel proteins and uses thereof” (CalciMedica, Inc., priority 2007, dated 2013):
Like-named read-outs stand apart in the source and are kept apart here. Each block holds one molecule with its values, some of them ahead of it.

Key:
[1] = test system: HEK[STIM1] cells (STIM1 overexpression)
Description: (§1) To test whether the […] entry pathway constitutively activated by STIM1 overexpression is pharmacologically similar to endogenous SOCE, HEK[STIM1] cells are pre-incubated with increasing doses of 2-APB and STIM1-induced Ca^2+ entry is measured.

[2] = test system: endogenous SOCE in HEK-Zeo control cells; details: read-out: IC50 of inhibition of calcium entry, thapsigargin-mediated store depletion, readdition of external calcium
Description: as §1

[3] = target: T1, CRAC current in olf186-F+Stim transfectants (Drosophila melanogaster, UniProt Q9U6B8); experiment: Whole-cell patch-clamp of Ca2+ current in olf186-F+Stim transfected S2 cells; format: cell-based
T1 construct: A cDNA clone, pAc5.1/olf186-F, encoding full-length Drosophila olf186-F-RB, was generated for transfection into S2 cells; expressed in transfected cells; host or cells: Drosophila S2 cells (transient, Nucleofector)
T1 sequence (Q9U6B8 1-351): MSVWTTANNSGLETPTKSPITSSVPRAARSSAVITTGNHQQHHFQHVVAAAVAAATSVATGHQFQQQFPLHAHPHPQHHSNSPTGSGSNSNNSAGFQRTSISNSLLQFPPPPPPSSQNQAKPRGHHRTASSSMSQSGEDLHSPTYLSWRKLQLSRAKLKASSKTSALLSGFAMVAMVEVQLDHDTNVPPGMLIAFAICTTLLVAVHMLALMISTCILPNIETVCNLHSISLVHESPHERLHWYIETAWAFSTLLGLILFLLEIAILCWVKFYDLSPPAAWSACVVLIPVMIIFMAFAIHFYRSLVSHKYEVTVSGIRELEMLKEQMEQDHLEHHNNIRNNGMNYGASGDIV
Description: Whole-Cell Recording. Patch-clamp experiments were performed at room temperature in the standard whole-cell recording configuration, using a holding potential of −10 mV. […] To calculate current densities, peak current amplitudes were divided by membrane capacitance for each cell.

[4] = target: STIM1 and Orai1 in HEK293 cells (Homo sapiens, UniProt Q96D31); details: HEK293 cells coexpressing STIM1 and Orai1; cited from earlier work
STIM1 and Orai1 in HEK293 cells, sequence (Q96D31 whole entry): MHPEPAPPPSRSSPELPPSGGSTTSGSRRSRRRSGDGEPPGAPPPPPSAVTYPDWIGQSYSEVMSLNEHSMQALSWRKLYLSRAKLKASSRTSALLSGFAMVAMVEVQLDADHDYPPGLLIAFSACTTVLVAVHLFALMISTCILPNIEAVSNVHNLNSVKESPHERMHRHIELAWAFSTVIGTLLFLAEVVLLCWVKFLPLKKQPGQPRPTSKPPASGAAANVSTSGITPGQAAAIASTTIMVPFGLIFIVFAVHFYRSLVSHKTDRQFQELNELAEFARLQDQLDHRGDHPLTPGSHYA

[5] = target: T2, Orai1/STIM1 ICRAC channel (Homo sapiens, UniProt Q96D31); experiment: Patch clamp (PatchXpress) of calcium currents in cells stably transfected with STIM1 and Orai1; format: cell-based
T2 construct: expressed in transfected cells
T2 sequence (Q96D31 whole entry): as above
Excerpt: Isolated, stably transfected cells were monitored with patch clamp analysis (PatchExpress) to detect calcium currents with overexpressed, stably transfected STIM1 and Orai1 nucleic acids.

Jurkat cells = details: cited from earlier work
colon cancer cells = details: cited from earlier work
STIM1/Orai1 CRAC channel = target: T3, STIM1/Orai1 CRAC channel (Homo sapiens, UniProt Q96D31); experiment: FLIPR assay of Orai1/STIM1-dependent Ca2+ entry in stably transfected STIM1/Orai1 cells; format: cell-based
T3 construct: expressed in transfected cells
T3 sequence (Q96D31 whole entry): as above
Description: Cells are plated at 30K cells/50 uL media/well in PDL-coated 384-well plate (Greiner Cell Coat; VWR cat#82051-358) 24 hours before experiment. 20 μM Fluo-4-AM (Invitrogen cat#F-14201) are prepared, resuspended with 10 μl F-127, 20% pluronic solution in DMSO (Invitrogen cat#P3000MP), and added to 2.3 mL culture medium. Cells are loaded with dye by adding 5 μl of the 20 μM Fluo-4-AM solution to each well of the 384-well plate that already contained 50 μL of culture medium. The plates are kept in dark, RT, for approximately 1 hour. HBSS/1% HEPES/0.2 g/L MgCl2 was prepared and cells transferred to a plate washer to remove dye-loading solution from cells. The cells are washed with HBSS/1% HEPES/0.2 g/L MgCl2, being careful not to dislodge the cells. The final volume of buffer left on the cells should equal 40 μL. The cell plate is transferred to FLIPR monitoring instrument (Molecular Devices, Sunnyvale, Calif.), and 10 μL compound is added and incubated for 30 minutes. Data points (1/sec) are acquired prior to the addition of CaCl2 to establish basal readings. 5 μL 11 mM CaCl2 (1.0 mM CaCl2 final) is added, and the fluorescence read every second for 1 minute, then every 10 seconds for 14 minutes. […]
RBL-2H3 cells plated in 384-well plates are loaded for 45 min with FLUO-4-AM (2 μM final concentration) in a Hanks-buffered salt solution. […] Fifteen minutes after addition of Tg, store-operated calcium entry is initiated by adding external Ca^2+ to a final concentration of 1.8 mM and the cells monitored for a further 10-15 minutes. Calcium levels are monitored throughout the assay using a FLIPR^384 (Molecular Devices fluorimetric imaging plate reader for high throughput screening).
The kinetic data from the FLIPR^384 are analyzed and stored in a relational database (ActivityBase; IDBS). Ten quantitative parameters are calculated that define various aspects of the store-operated calcium entry response. […]

Drosophila S2 cells = experiment: Single-cell ratiometric fura-2 [Ca2+]i imaging of S2 cells; format: cell-based; details: control cells, 1 μM ionomycin in zero-Ca2+ solution, average
Description: RNAi in Drosophila S2 Cells. RNAi experiments were adapted from the protocols described by Worby et al. Drosophila S2 cells (0.5×10^6) were seeded in T-25 flasks in 2 ml of complete S2 medium. The next day, medium was removed and replaced with 2 ml of serum-free S2 medium. Twenty micrograms of dsRNA was added, and cells were incubated at room temperature for 45 min with gentle rocking. Four milliliters of S2 medium was added, and cells were incubated for 5 days at 24° C. Cells then were harvested and either plated for single-cell Ca^2+ imaging and patch-clamp experiments or processed for RT-PCR analysis.
Single-Cell [Ca^2+]i imaging. Ratiometric [Ca^2+]i Imaging was performed as described in ref. 3, using solution recipes described in Table 3. Transfected cells were recognized by coexpressed enhanced GFP (EGFP), using filters to avoid contamination of Fura-2 fluorescence by bleedthrough of GFP fluorescence. Data were analyzed with METAFLUOR software (Universal Imaging, Downington, Pa.) and ORIGINPRO 7.5 software (OriginLab, Northampton, Mass.) and are expressed as means ±SEM.
Effects of olf186-F Knockdown and Overexpression on Ca^2+ Influx and CRAC Currents in Single Cells. […]

Compound: NCCOB(c1ccccc1)c1ccccc1 [2-APB, 2-aminoethoxydiphenyl borate]
calcium entry at lower concentrations ([1]; absence of store depletion, lower concentrations): potentiated | IC50 ([1]; read-out: IC50 of inhibition of calcium entry, thapsigargin-mediated store depletion, readdition of external calcium): 10.5 µM | IC50 ([1]; read-out: IC50 of inhibition of constitutive calcium entry, absence of store depletion): 10.8 µM | IC50 [2]: 11.8 µM | effect on enhanced Ca2+ currents ([3]; 5 μM): potentiation of current before blocking | effect on enhanced Ca2+ currents ([3]; 20 μM): blocked | store-operated Ca2+ entry [4]: completely blocked | effect on CRAC channel currents (FIG. 8) [5]: potentiation

Compound: Cc1nnsc1C(=O)Nc1ccc(-n2nc(C(F)(F)F)cc2C(F)(F)F)cc1 [BTP-2]
SOCE (Jurkat cells): inhibits | proliferation (Jurkat cells): inhibits | SOCE (colon cancer cells): inhibits | proliferation (colon cancer cells): inhibits

CRAC-channel mediated Ca2+ entry (STIM1/Orai1 CRAC channel): inhibit | IC50 (STIM1/Orai1 CRAC channel; read-out: IC50 (inhibition of calcium inflow)): 1.9 µM
Compound: O=C(Nc1scc(-c2ccc(Br)cc2)c1C(=O)O)c1cccc(F)c1 [Cmpd B]

effect on enhanced Ca2+ currents ([3]; 50 nM): blocked
Compound: [Gd+3] [Gd^3+]

CRAC-channel mediated Ca2+ entry (STIM1/Orai1 CRAC channel): inhibit
Compound: O=C(Nc1scc(-c2ccc(Br)cc2)c1C(=O)O)c1ccc(F)cc1 [compound A]

Compound: C[C@H](CCC(=O)O)C[C@H](C)C[C@H](C)C(=O)/C=C(\O)[C@H](C)C[C@H](C)C/C=C/[C@@H](C)[C@@H](O)[C@@H](C)[C@@H](O)C[C@@H]1CC[C@@](C)([C@H]2CC[C@@](C)([C@@H](C)O)O2)O1 [ionomycin]
peak of Ca2+ release transient (Drosophila S2 cells): 200 nM
